In patent US9676792B2, “Pyrimido-diazepinone compounds and methods of treating disorders” (Dana-Farber Cancer Institute, Inc., priority 2013, dated 2017):
Values joined by “and” are separate entries in the source; they are usually repeats but may differ in a detail not shown here. Identical values can stand only once. Like-named read-outs stand apart in the source and are kept apart here. Blank lines part the entries; values can stand above or below the compound they belong to.

What was measured:
EphB2 [1] = target: T1, EphB2 (Homo sapiens (Human), UniProt P29323); assay: ActivX kinase profiling; format: binding
ERK5 [2] = target: T2, ERK5 (Homo sapiens (Human), UniProt Q13164); assay: KiNativ chemical proteomics profiling in HeLa and PC3 cell lysates; format: binding; details: read-out: ERK5 inhibition (KiNativ)
Excerpt: Compared with our previously reported ERK5 inhibitor, XMD8-92 (11, S10=0.012, 5/402), compound 26 represents a further improvement in selectivity. […] Compounds 25 and 26 were also profiled against selected panels of kinases in HeLa and PC3 cell lysates using a chemical proteomics approach, KiNativ.

panel of 442 kinases [3] = assay: KINOMEscan selectivity profiling; format: binding; details: 10 μM
Excerpt: We assessed the selectivity of this scaffold using the KINOMEscan methodology across a near comprehensive panel of 442 kinases. […]

ERK5 [4] = target: T2, ERK5; details: cited from earlier work
LRRK2 = LRRK2 (Homo sapiens (Human), UniProt Q5S007); details: cited from earlier work
panel of 442 kinases [5] = details: cited from earlier work
EPHB6 = EPHB6 (Homo sapiens (Human), UniProt O15197); assay: Ambit kinase profiling; format: binding
EphA1 = EphA1 (Homo sapiens (Human), UniProt P21709); assay: Ambit kinase profiling; format: binding
EphA2 [6] = target: T3, EphA2 (Homo sapiens (Human), UniProt P29317); assay: Ambit kinase profiling; format: binding
EPHA8 = assay: Ambit kinase profiling; format: binding
EPHA5 = EPHA5 (Homo sapiens (Human), UniProt P54756); assay: Ambit kinase profiling; format: binding
EphB4 = EphB4 (Homo sapiens (Human), UniProt P54760); assay: Ambit kinase profiling; format: binding
EPHB1 = EPHB1 (Homo sapiens (Human), UniProt P54762); assay: Ambit kinase profiling; format: binding
EPHA4 = EPHA4 (Homo sapiens (Human), UniProt P54764); assay: Ambit kinase profiling; format: binding
EPHA3 = EPHA3 (Homo sapiens (Human), UniProt P29320); assay: Ambit kinase profiling; format: binding
EphA7 = EphA7 (Homo sapiens (Human), UniProt Q15375); assay: Ambit kinase profiling; format: binding
EPHB3 = EPHB3 (Homo sapiens (Human), UniProt P54753); assay: Ambit kinase profiling; format: binding
EphB2 [7] = target: T1, EphB2; assay: Ambit kinase profiling; format: binding
EphA2 [8] = target: T3, EphA2; assay: In vitro EphA2 kinase assay, Invitrogen EphA2 Z'-LYTE activity assay; format: biochemical
Procedure: Example 13: In Vitro EphA2 Kinase Assay—Invitrogen EphA2 Z′-LYTE Activity Assay
EphA2 kinase assays were performed according to the methods described in Z′-LYTE® Screening Protocol and Assay Conditions at the Life Technologies website (available at http://www.invitrogen.com).

T3 sequence (P29317 24-976): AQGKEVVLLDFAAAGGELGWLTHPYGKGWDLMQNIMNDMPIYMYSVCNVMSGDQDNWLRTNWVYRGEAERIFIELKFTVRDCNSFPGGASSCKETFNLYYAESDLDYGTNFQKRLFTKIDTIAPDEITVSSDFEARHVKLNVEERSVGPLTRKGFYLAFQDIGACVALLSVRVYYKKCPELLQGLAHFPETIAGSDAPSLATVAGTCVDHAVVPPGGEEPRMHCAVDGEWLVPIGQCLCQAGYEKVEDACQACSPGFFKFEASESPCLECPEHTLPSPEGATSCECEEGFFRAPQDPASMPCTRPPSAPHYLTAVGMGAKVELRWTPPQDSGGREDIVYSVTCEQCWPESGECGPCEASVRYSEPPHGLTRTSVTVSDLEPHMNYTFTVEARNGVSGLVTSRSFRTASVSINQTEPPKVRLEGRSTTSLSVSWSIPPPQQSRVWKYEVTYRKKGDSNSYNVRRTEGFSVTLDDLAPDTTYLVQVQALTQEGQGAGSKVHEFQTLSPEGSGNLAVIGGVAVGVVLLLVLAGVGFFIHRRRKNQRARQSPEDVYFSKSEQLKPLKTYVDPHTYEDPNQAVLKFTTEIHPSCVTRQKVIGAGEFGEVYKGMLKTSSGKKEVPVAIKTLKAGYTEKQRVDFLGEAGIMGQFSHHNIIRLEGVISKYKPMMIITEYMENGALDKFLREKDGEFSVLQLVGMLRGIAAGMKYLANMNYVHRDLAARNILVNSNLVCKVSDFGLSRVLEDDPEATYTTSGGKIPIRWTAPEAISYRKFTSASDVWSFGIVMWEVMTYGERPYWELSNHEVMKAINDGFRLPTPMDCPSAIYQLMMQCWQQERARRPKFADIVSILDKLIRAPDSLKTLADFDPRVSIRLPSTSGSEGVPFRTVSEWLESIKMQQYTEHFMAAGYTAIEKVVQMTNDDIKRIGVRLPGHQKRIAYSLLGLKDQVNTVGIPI
T2 sequence (Q13164 2-816 limits assumed): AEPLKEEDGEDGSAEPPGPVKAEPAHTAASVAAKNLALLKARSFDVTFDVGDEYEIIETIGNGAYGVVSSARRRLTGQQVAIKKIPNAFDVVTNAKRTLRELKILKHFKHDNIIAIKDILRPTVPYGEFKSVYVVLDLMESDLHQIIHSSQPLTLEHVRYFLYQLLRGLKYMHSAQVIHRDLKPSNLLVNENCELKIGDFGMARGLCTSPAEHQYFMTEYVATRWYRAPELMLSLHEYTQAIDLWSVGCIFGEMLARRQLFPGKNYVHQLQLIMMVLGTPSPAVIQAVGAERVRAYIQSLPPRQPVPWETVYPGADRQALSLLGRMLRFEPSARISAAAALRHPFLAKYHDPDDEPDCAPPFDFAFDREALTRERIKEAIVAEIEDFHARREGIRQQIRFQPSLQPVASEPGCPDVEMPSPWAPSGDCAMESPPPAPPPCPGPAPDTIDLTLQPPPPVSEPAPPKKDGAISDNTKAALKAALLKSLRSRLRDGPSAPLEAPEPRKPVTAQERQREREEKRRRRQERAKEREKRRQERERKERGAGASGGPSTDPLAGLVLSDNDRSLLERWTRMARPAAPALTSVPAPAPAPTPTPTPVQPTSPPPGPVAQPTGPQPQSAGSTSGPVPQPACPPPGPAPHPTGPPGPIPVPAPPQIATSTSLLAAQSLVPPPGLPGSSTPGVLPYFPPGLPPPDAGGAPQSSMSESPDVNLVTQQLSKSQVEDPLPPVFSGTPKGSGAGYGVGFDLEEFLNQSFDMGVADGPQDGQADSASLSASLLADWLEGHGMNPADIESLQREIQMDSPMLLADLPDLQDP
T1 sequence (P29323 19-1055): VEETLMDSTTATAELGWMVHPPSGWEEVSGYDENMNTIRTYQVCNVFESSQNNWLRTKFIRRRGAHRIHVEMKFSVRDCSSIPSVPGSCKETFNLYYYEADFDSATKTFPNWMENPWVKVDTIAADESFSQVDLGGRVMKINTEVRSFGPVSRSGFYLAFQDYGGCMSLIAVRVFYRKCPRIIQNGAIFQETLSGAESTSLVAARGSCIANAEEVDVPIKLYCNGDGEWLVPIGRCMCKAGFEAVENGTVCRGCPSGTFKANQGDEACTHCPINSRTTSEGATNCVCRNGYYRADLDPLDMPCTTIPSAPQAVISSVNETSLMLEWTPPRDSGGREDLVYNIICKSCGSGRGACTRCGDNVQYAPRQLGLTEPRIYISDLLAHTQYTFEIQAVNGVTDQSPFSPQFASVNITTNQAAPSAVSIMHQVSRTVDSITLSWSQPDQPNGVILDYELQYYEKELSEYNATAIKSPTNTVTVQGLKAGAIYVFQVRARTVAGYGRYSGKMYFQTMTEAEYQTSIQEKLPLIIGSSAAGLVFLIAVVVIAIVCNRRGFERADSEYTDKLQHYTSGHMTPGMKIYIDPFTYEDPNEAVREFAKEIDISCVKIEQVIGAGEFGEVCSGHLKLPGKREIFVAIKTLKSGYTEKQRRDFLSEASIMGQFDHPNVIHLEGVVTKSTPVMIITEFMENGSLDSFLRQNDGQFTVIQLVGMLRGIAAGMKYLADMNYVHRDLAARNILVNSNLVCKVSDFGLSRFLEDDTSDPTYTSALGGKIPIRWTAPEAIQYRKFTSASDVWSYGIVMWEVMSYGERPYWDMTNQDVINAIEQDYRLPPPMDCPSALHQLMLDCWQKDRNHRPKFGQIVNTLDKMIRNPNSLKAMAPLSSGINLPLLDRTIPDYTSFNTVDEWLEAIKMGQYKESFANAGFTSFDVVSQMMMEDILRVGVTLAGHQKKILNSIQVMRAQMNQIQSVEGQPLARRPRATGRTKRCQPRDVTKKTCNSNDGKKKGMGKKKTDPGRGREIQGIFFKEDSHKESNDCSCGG
Sequence of EphA1 (P21709 26-976): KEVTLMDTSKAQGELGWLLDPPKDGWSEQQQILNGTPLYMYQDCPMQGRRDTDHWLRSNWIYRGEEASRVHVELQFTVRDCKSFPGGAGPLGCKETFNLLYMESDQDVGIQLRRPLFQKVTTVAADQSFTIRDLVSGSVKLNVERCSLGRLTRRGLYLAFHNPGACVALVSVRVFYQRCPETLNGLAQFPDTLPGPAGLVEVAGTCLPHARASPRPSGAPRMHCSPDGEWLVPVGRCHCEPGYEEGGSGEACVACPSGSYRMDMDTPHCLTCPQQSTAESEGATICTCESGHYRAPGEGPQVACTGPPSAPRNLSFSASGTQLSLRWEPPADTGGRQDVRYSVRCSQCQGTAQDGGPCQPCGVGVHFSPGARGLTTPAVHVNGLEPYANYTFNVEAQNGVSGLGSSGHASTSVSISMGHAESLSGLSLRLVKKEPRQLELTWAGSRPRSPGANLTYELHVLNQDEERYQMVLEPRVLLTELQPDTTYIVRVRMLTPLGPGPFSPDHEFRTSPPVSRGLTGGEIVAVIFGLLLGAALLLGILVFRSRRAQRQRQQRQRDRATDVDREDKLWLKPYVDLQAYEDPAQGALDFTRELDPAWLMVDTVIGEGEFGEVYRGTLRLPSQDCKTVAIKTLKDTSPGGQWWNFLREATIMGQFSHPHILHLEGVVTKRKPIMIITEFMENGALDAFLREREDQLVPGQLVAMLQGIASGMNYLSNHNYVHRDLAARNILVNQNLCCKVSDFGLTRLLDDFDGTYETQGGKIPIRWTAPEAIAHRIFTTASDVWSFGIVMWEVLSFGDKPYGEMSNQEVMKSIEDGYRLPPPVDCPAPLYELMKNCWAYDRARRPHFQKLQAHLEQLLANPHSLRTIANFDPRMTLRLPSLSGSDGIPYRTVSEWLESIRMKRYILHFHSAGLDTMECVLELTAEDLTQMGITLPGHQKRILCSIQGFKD
Sequence of EphB4 (P54760 16-987): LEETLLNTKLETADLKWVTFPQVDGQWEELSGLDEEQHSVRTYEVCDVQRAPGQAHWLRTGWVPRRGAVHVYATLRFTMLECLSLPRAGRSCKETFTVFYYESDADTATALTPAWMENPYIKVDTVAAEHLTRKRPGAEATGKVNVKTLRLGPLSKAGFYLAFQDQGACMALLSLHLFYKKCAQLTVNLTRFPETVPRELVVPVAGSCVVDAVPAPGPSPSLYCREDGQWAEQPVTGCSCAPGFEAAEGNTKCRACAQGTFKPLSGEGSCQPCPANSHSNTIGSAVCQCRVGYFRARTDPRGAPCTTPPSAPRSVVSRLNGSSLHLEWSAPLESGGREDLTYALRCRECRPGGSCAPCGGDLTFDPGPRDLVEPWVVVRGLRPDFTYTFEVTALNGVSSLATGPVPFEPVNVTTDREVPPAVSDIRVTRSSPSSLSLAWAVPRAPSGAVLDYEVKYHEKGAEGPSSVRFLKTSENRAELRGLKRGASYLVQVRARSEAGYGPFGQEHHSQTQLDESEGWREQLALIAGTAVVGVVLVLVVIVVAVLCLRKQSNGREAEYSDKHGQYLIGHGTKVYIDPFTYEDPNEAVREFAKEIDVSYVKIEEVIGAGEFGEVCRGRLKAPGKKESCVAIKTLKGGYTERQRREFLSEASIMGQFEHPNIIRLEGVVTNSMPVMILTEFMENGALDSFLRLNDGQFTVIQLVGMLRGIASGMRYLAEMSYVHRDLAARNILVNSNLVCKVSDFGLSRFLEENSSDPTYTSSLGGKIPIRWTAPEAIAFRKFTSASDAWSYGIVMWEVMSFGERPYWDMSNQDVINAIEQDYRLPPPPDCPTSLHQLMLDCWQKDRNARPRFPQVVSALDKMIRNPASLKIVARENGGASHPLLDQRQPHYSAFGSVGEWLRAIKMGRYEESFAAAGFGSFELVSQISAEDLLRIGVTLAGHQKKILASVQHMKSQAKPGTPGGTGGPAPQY

Compound: COc1cc(N2CCN(C)CC2)ccc1Nc1ncc2c(n1)-c1ccccc1N(C1CCCC1)C(=O)N2 [AB-1-15]
ActivX EphB2 (EphB2 [1]): 5.2

Compound: COc1cc(N2CCN(C)CC2)ccc1Nc1ncc2c(n1)-c1ccccc1N(C1CCOCC1)C(=O)N2 [AB-1-16]
ActivX EphB2 (EphB2 [1]): 7

Compound: O=C1Nc2cnc(Nc3ccc(N4CCC(O)CC4)cc3)nc2-c2ccccc2N1C1CCCC1 [AB-1-17]
ActivX EphB2 (EphB2 [1]): 21.5

Compound: CN1C(=O)N(C2CCCC2)c2ccccc2-c2nc(Nc3ccc(N4CCC(O)CC4)cc3)ncc21 [AB-1-24]
ActivX EphB2 (EphB2 [1]): 6.8

Compound: COc1cc(C(=O)N2CCC(N3CCN(C)CC3)CC2)ccc1Nc1ncc2c(n1)N(C1CCCC1)c1ccccc1C(=O)N2C [Compound 25]
inhibition at 10 µM (ERK5 [2]): > 90% | KINOMEscan selectivity score S10 (panel of 442 kinases [3]): 0.018

Compound: O=C(Nc1cccnc1)c1cc(-c2ccnc(F)c2)ccc1OCc1ccccc1 [GSK2578215A, 2-arylmethyloxy-5-subtitutent-N-arylbenzamide]
ERK5 inhibition as reported (ERK5 [4]): do not inhibit ERK5 | LRRK2 inhibition as reported (LRRK2): potent LRRK2 inhibitors

Compound: CNc1nc(Nc2ccc(C(=O)N3CCOCC3)cc2OC)ncc1Cl [HG-10-102-01, (4-((5-chloro-4-(methylamino)pyrimidin-2-yl)amino)-3-methoxyphenyl)(morpholino)methanone]
ERK5 inhibition as reported (ERK5 [4]): do not inhibit ERK5 | LRRK2 inhibition as reported (LRRK2): potent LRRK2 inhibitors

Compound: COc1cc(C(=O)N2CCC(N3CCN(C)CC3)CC2)ccc1Nc1ncc2c(n1)N(C)c1ccccc1C(=O)N2C [LRRK2-IN-1]
KINOMEscan selectivity score S10 (panel of 442 kinases [5]; previous LRRK2 inhibitor, 16/442): 0.036

Compound: O=C1Nc2ccccc2-c2nc(Nc3ccc(N4CCC(O)CC4)cc3)ncc2N1 [XMD16-95]
ActivX EphB2 (EphB2 [1]): 97.2

Compound: O=C1Nc2cnc(Nc3ccc(N4CCC(O)CC4)cc3)nc2-c2ccccc2N1Cc1ccccc1Cl [XMD16-101-1]
ActivX EphB2 (EphB2 [1]): 6.1

Compound: XMD8-92
KINOMEscan selectivity score S10 (panel of 442 kinases [5]; previously reported, 5/402 kinases): 0.012

More lines, now with the values ahead:

ActivX EphB2 (EphB2 [1]): 0.6
Compound: O=C1Nc2cnc(Nc3ccc(N4CCC(O)CC4)cc3)nc2-c2ccccc2N1Cc1c(Cl)cccc1Cl [XMD16-101-2]

Ambit EPHB6 (EPHB6): 20 | Ambit EPHA1 (EphA1): 69 | Ambit EPHA2 (EphA2 [6]): 100 | ActivX EphB2 (EphB2 [1]): 19.8 | Ambit EPHA8 (EPHA8): 92 and 100 | Ambit EPHA5 (EPHA5): 91 | Ambit EPHB4 (EphB4): 91 | Ambit EPHB1 (EPHB1): 91 | Ambit EPHA4 (EPHA4): 84 | Ambit EPHA3 (EPHA3): 47 | Ambit EPHA7 (EphA7): 100 | Ambit EPHB3 (EPHB3): 93 | Ambit EPHB2 (EphB2 [7]): 100
Compound: CN1C(=O)N(C)c2cnc(Nc3ccc(N4CCC(O)CC4)cc3)nc2-c2ccccc21 [XMD16-117]

ActivX EphB2 (EphB2 [1]): −20.9
Compound: COc1cc(C(=O)N2CCC(N3CCN(C)CC3)CC2)ccc1Nc1ncc2c(n1)-c1ccccc1N(C)C(=O)N2C [XMD16-118]

ActivX EphB2 (EphB2 [1]): 60.1
Compound: COc1cc(C(=O)N2CCC(N3CCN(C)CC3)CC2)ccc1Nc1ncc2c(n1)-c1ccccc1NC(=O)N2 [XMD16-120]

ActivX EphB2 (EphB2 [1]): 12.2
Compound: COc1cc(C(=O)N2CCC(N3CCN(C)CC3)CC2)ccc1Nc1ncc2c(n1)-c1ccccc1N(Cc1ccccc1C)C(=O)N2 [XMD16-121]

ActivX EphB2 (EphB2 [1]): −13
Compound: CN1C(=O)N(Cc2ccccc2Cl)c2ccccc2-c2nc(Nc3ccc(N4CCC(O)CC4)cc3)ncc21 [XMD16-122-1]

ActivX EphB2 (EphB2 [1]): −5.5
Compound: CN1C(=O)N(Cc2c(Cl)cccc2Cl)c2ccccc2-c2nc(Nc3ccc(N4CCC(O)CC4)cc3)ncc21 [XMD16-122-2]

ActivX EphB2 (EphB2 [1]): 2.5
Compound: COc1cc(C(=O)N2CCC(N3CCN(C)CC3)CC2)ccc1Nc1ncc2c(n1)-c1ccccc1N(Cc1ccccc1Cl)C(=O)N2C [XMD16-123-1]

Ambit EPHB6 (EPHB6): 78 | Ambit EPHA1 (EphA1): 81 | Ambit EPHA2 (EphA2 [6]): 93 | ActivX EphB2 (EphB2 [1]): 18.3 | Ambit EPHA8 (EPHA8): 100 | Ambit EPHA5 (EPHA5): 90 | Ambit EPHB4 (EphB4): 99 | Ambit EPHB1 (EPHB1): 84 | Ambit EPHA4 (EPHA4): 89 | Ambit EPHA3 (EPHA3): 77 | Ambit EPHA7 (EphA7): 100 | Ambit EPHB3 (EPHB3): 93 | Ambit EPHB2 (EphB2 [7]): 100
Compound: Cc1ccccc1CN1C(=O)N(C)c2cnc(Nc3ccc(N4CCC(O)CC4)cc3)nc2-c2ccccc21 [XMD16-124]

ActivX EphB2 (EphB2 [1]): 0.9
Compound: COc1cc(C(=O)N2CCC(N3CCN(C)CC3)CC2)ccc1Nc1ncc2c(n1)-c1ccccc1N(Cc1ccccc1C)C(=O)N2C [XMD16-125]

ActivX EphB2 (EphB2 [1]): 2 | EphA2 Activity (% Inhibition at 10 micromolar) (EphA2 [8]): −1.1% and −10.5%
Compound: COc1cc(C(=O)N2CCC(N3CCN(C)CC3)CC2)ccc1Nc1ncc2c(n1)-c1ccccc1N(C1CCCC1)C(=O)N2 [XMD16-127]

ActivX EphB2 (EphB2 [1]): 4.5 | EphA2 Activity (% Inhibition at 10 micromolar) (EphA2 [8]): −5.1% and −8.2%
Compound: COc1cc(C(=O)N2CCC(N3CCN(C)CC3)CC2)ccc1Nc1ncc2c(n1)-c1ccccc1N(C1CCOCC1)C(=O)N2 [XMD16-128]
